Assay results from patent EP0694299B1, “The use of( a) bicycloheptane derivative(s)” (EGIS GYOGYSZERGYAR RT., priority 1994, dated 1996).
Read-outs that look alike come from different tables or passages of the source.

Tested on: cholecyst contraction induced by yolk
Assay: Inhibition of yolk-induced gallbladder (cholecyst) mass decrease in mice
Format: in vivo, male mice from the strain NMRI
Details: Mus musculus, po
Procedure: The effect of the bicycloheptane derivatives used according to the invention is verified on the following test. Known spasmolytics 1-[3',4'-di-(ethoxy)-benzyliden]-6,7-di-- [ethoxy] -1,2,3,4-terra-[hydro] -isoquinoline {drotaverine} and 1- [3',4'-di-(methoxy)-benzyl]-6,7-di-[methoxy] -isoquinoline {papaverine} are employed for comparison. (These spasmolytics are most often used in the therapeutical practice).
The tests were performed on male mice from the strain NMRI in groups consisting of 8 to 12 animals. At the beginning of the test, the animals were weighing 20 to 30 g.
The animals were starved for 24 hours before beginning the first treatment, however, they were allowed to consume water ad libitum. The compounds to be tested and the carrier (0.4% solution of methyl cellulose) were administered perorally in a volume of 10 ml/kg.
45 minutes after this treatment, an emulsion of 30% of yolk in 0.4% methyl cellulose solution was administered perorally. Each mouse consumed 0.5 ml of the emulsion. The animals of the control group consumed 0.5 ml of the carrier i.e. 0.4% methyl cellulose solution.
After 15 minutes, cervicalis dislocatio was employed, the gallbladders were removed and weighed, one by one. The effect of the compounds tested was given as the inhibition of the cholecyst mass decrease induced by yolk, in percentage. […] Table

[1] = dose causing 50% inhibition of the cholecyst mass decrease induced by yolk, p.o. 45 min before 30% yolk emulsion, gallbladders weighed 15 min later, linear regression, read-out: ID50 p.o.

Compound	ED50 [1] [mg/kg]	ED50 (read-out: ID50 p.o. in mg/kg) [mg/kg]
CC1(C)[C@@H]2CC[C@@]1(C)[C@@](OCC[N+](C)(C)[O-])(c1ccccc1)C2 [(1R,2S,4R)-(-)-2-[Phenyl]-2-[2'-(dimethylamino)-ethoxy]-1,7,7-tri-[methyl]-bicyclo[2.2.1]heptane-N-oxide (E)-2-butenedioate]	> 100	
CCOc1ccc(/C=C2\NCCc3cc(OCC)c(OCC)cc32)cc1OCC [Drotaverine, 1-[3',4'-di-(Ethoxy)-benzyliden]-6,7-di-[ethaxy]-1,2,3,4-tetra-[hydro]-isoquinoline, reference compound]	> 100	
CN(C)CCO[C@]1(c2ccccc2)C[C@H]2CC[C@]1(C)C2(C)C.O=C(O)/C=C/C(=O)O [(1R,2S,4R)-(-)-2-[Phenyl]-2-[2'-(dimethylamino)-ethoxy]-1,7,7-tri-[methyl] -bicyclo[2.2.1]heptane (E)-2-butenedioate]	7	
COc1ccc(Cc2nccc3cc(OC)c(OC)cc23)cc1OC [Papaverine, 1-[3',4'-di-(Methoxy)-benzyl]-6,7-di-[methoxy]-isoquinoline, reference compound]		> 100
CN(C)CCO[C@@]1(c2ccccc2)C[C@@H]2CC[C@@]1(C)C2(C)C.O=C(O)/C=C/C(=O)O [(1S,2R,4S)-(+)-2-[Phenyl] -2-[2'-(dimethylamino)-ethoxy]-1,7,7-tri-[methyl] -bicyclo[2.2.1]heptane (E) -2-butenedioate]	> 100	
